{"source": "patent US11337427B2", "about": "“Antimicrobial agents and their use in therapy” (priority 2013, dated 2022)", "key": {"E. coli BL21 (ripl)": {"test_system": "E. coli BL21 (ripl)", "experiment": "Overexpression of APIM peptides in E. coli (growth, OD)", "assay_type": "cell-based", "conditions": "induced with 1 mM IPTG; no cell-penetrating peptide", "text": "In order to verify further that the anti-microbial effect of the APIM peptides arises from the APIM sequence, peptides containing only the APIM sequence (i.e. without a cell-penetrating peptide) were over-expressed in E. coli using the expression vector pET28. The APIM peptide was expressed alone or as part of a fusion protein with EYFP. Expression of EYFP alone was used as a control.\nThe expression vectors containing the respective peptides were transfected into the bacterial strain E. coli BL21 (ripl). Single colonies, 4-6 of each strain, were inoculated in […] LB media (+Km/Clm) in 96 wells plates, and incubated at 37° C. Overnight cultures were diluted 1:100 and grown for 1 h before induction with 1 mM IPTG (initiating peptide expression). OD was measured every hour."}, "[1]": {"test_system": "Saccharomyces cerevisiae wild type BY4743", "experiment": "Yeast growth study in microplates (OD 600 nm)", "conditions": "for concentration required to retard growth of the yeast cells: agent alone, wild-type yeast", "method": "Growth studies on wild-type (wt) yeast and the Hog1 mutant were performed. […] The OD (600 nm) in each well was read every 20 minutes using an integrated Beckman Coulter Paradigm microplate reader. The growth of the yeast strains in the microplates was monitored for approximately 25 hours."}, "[2]": {"test_system": "Staphylococcus aureus NCTC 6571", "experiment": "MIC assay", "conditions": "starting concentration 150 μg/ml"}, "E. coli NCIMB 12210": {"test_system": "E. coli NCIMB 12210", "conditions": "E. coli NCIMB 12210, FIG. 7"}, "[3]": {"test_system": "Staphylococcus aureus MRSA 1096", "experiment": "MIC assay", "conditions": "starting concentration 150 μg/ml"}, "[4]": {"test_system": "gram positive bacteria (Enterococcus faecium CCUG 37832, Enterococcus faecium CTC 492, Micrococcus luteus ATCC 9341)", "experiment": "Robotic MIC assay, gram positive bacteria", "conditions": "FIG. 5"}, "[5]": {"test_system": "gram negative bacteria (Pseudomonas aeruginosa ATCC 15692, Acinetobacter baumanni ATCC 19606, Escherichia coli ATCC 25922, Pseudomonas aeruginosa TO-5A)", "experiment": "Robotic MIC assay, gram negative bacteria", "conditions": "FIG. 4"}, "[6]": {"test_system": "Yeast cells (Saccharomyces cerevisiae)", "experiment": "Cellular import of FAM-labelled ATX-101 (laser scanning microscopy)", "assay_type": "cell-based", "conditions": "FAM-labelled peptide, 1-2 minutes incubation", "experimental": "Yeast cells (Saccharomyces cerevisiae) were grown in LB media. A fluorescently labelled APIM peptide (ATX-101-FAM) was added to the media and incubated for 1-2 minutes before an aliquot of cells was removed and analyzed on a Zeiss LSM 510 Meta laser scanning microscope equipped with a Plan-Apochromate 63×/1.4 oil immersion objective."}}}
{"compound": "RWLVP (APIM variant) [APIM variant over-expressed in E. coli]", "values": [{"measurement": "effect of overexpression on bacterial growth", "setting": "E. coli BL21 (ripl)", "result": "particularly effective"}]}
{"compound": "RWLTK (APIM variant) [APIM variant over-expressed in E. coli]", "values": [{"measurement": "effect of overexpression on bacterial growth", "setting": "E. coli BL21 (ripl)", "result": "particularly effective"}]}
{"compound": "N.N.[Cl][Pt][Cl]", "note": "[cisplatin]", "values": [{"measurement": "concentration required to retard growth of the yeast cells", "setting": "[1]", "result": 500, "unit": "µM"}, {"measurement": "effect on growth of the yeast cells", "setting": "[1]; cisplatin 125 μM alone", "result": "not sufficient to retard growth"}, {"measurement": "effect on growth of the yeast cells", "setting": "[1]; cisplatin 2000 μM alone", "result": "growth is not completely inhibited"}]}
{"compound": "RFSLK (APIM variant) [APIM variant over-expressed in E. coli]", "values": [{"measurement": "effect of overexpression on bacterial growth", "setting": "E. coli BL21 (ripl)", "result": "particularly effective"}]}
{"compound": "Ac-MDRWLVKWKKKRKIRRRRRRRRRRR [ATX-101]", "values": [{"measurement": "Factor of inhibition", "setting": "[2]", "result": 1}, {"measurement": "concentration required to retard growth of the yeast cells", "setting": "[1]", "result": "≥ 20", "unit": "µM"}, {"measurement": "reduction of the MIC for novobiocin", "setting": "E. coli NCIMB 12210", "result": 16, "unit": "fold"}, {"measurement": "Factor of inhibition", "setting": "[3]", "result": 0.0625}, {"measurement": "concentration from which growth is inhibited", "setting": "[4]", "result": "about 1 μM"}, {"measurement": "concentration from which growth is inhibited", "setting": "[5]", "result": "about 1 μM"}, {"measurement": "cellular import", "setting": "[6]", "result": "imported into yeast cells"}]}
{"compound": "RWLVK (APIM variant)", "values": [{"measurement": "effect of overexpression on bacterial growth", "setting": "E. coli BL21 (ripl)", "result": "inhibits bacterial growth"}]}
